Assay [1] has as its target T1, AKT2 (Homo sapiens, UniProt P31751).
T1 construct: expressed in transfected cells; host or cells: HEK293
Put plainly: Live cell AKT2 target engagement by NanoBRET competitive probe displacement in HEK293 cells. The assay is classed as binding. The following applies: 2 h at 37° C., read-out: AKT2 IC50. Background: Bioluminescence resonance energy transfer reports proximity on the nanometre scale.

The target in assay [2] is T2, AKT1 WT (Homo sapiens, UniProt P31749).
T2 construct: expressed in transfected cells; host or cells: HEK293
The experiment in a line: Live cell AKT1 WT target engagement by NanoBRET competitive probe displacement in HEK293 cells. The settings on record: 2 h at 37° C., read-out: AKT1 WT IC50. The format is binding.

The mark [3] stands for this setting: NanoBRET live cell target engagement, HEK293 cells.
Where [4] appears, read: NanoBRET competitive probe displacement, live HEK293 cells.

Where two headings read alike, the source gives them in different places. A value given as a limit tells only on which side of the number the result lay.

T1 sequence (P31751 whole entry): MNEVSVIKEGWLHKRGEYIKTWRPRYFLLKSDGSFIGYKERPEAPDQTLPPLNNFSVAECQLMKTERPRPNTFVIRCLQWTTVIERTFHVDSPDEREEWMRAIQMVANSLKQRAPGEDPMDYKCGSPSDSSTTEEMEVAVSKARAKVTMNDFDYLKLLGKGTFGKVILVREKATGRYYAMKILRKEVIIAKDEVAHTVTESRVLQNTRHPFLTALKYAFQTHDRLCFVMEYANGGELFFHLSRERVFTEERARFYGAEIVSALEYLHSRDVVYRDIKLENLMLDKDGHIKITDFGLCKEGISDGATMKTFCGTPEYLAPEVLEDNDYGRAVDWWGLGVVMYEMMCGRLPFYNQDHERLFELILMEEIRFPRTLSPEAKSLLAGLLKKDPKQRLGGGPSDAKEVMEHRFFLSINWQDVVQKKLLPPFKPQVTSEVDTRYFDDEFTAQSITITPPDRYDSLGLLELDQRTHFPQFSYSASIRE
T2 sequence (P31749 whole entry): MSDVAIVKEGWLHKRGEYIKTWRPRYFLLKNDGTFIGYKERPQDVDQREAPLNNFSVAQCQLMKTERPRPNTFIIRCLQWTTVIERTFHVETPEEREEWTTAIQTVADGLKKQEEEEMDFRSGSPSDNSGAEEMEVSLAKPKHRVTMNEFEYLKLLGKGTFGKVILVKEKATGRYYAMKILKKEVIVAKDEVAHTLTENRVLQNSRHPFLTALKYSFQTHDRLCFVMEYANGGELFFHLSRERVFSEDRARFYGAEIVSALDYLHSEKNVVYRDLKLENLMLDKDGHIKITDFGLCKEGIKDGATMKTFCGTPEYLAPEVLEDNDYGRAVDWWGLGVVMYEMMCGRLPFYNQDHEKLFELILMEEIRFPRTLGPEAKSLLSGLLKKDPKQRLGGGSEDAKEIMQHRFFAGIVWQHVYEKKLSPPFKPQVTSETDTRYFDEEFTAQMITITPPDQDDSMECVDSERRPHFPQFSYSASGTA

As for `Nc1ncccc1-c1nc2ccc(-n3cccn3)nc2n1-c1ccc2c(c1)CC[C@@H]2NC(=O)c1cccnc1C1CC1` [Compound 103], the IC50 (usually the concentration that inhibits the measured activity by half) was determined as 316 nM in assay [1] (setting [3]) and 25.2 nM in assay [2] (setting [3]).
For `COc1csc(-c2ccc3nc(-c4cccnc4N)n(-c4ccc5c(c4)CC(F)[C@@H]5NC4CCN(C(=O)C5CC5)CC4)c3n2)n1` (stereo partly drawn) [Compound 559], the IC50 in assay [1] (setting [4]) turned out to be 268 nM; in assay [2] (setting [4]), 5.67 nM.
Take `Cc1ncccc1C(=O)N[C@H]1CCc2cc(-n3c(-c4cccnc4N)nc4ccc(C5CC5)nc43)ccc21` [Compound 129]: the IC50 in assay [1] (setting [3]) was greater than 10000 nM; in assay [2] (setting [3]), 111 nM.
The corresponding values for `Cc1cccnc1C(=O)N[C@H]1CCc2cc(-n3c(-c4cccnc4N)nc4ccc(-n5cccn5)nc43)ccc21` [Compound 184] are 4740 nM and 114 nM.
As for `Nc1ncccc1-c1nc2ccc(-n3cccn3)nc2n1-c1ccc2c(c1)CC[C@@H]2NC1CCCc2ccncc21` (stereo partly drawn) [Compound 501], the IC50 in assay [1] (setting [4]) is 695 nM; in assay [2] (setting [4]), 20.5 nM.
As for `Nc1ncccc1-c1nc2ccc(-n3cccn3)nc2n1-c1ccc2c(c1)CC[C@@H]2n1ccnc1` [Compound 273, (S)-3-(3-(1-(1H-imidazol-1-yl)-2,3-dihydro-1H-inden-5-yl)-5-(1H-pyrazol-1-yl)-3H-imidazo[4,5-b]pyridin-2-yl)pyridin-2-amine], the IC50 in assay [1] (setting [3]) turned out to be 165 nM; in assay [2] (setting [3]), 11.6 nM.
For `Nc1ncccc1-c1nc2ccc(-n3cccn3)nc2n1-c1ccc2c(c1)CC(F)C2NC1CCN(C(=O)C2CC2)CC1` (stereo not drawn) [Compound 522], the results for the IC50 in assay [1] (setting [4]) and in assay [2] (setting [4]) were greater than 10000 nM and 524 nM, respectively.
The corresponding values for `CN1CCC(n2ccc(-c3ccc4nc(-c5cccnc5N)n(-c5ccc6c(c5)CC[C@@H]6NC5CCN(C(=O)C6CC6)CC5)c4n3)n2)CC1` [Compound 570] are 679 nM and 47.5 nM.
`Nc1ncccc1-c1nc2ccc(-n3cccn3)nc2n1-c1ccc2c(c1)CC[C@@H]2n1ccnn1` [Compound 188]: the IC50 in assay [1] (setting [3]) came out at 650 nM; in assay [2] (setting [3]), 20 nM.
The corresponding values for `Nc1ncccc1-c1nc2ccc(-n3cccn3)nc2n1-c1ccc2c(c1)CC[C@@H]2NC(=O)c1cc2ncccn2n1` [Compound 176] are 315 nM and 24.7 nM.
The corresponding values for `Nc1ncccc1-c1nc2ccc(-n3cccn3)nc2n1-c1ccc2c(c1)CC[C@@H]2n1cc(C2COC2)nn1` [Compound 220] are 6260 nM and 68.2 nM.
The corresponding values for `CNS(=O)(=O)c1cccc(C(=O)N[C@H]2CCc3cc(-n4c(-c5cccnc5N)nc5ccc(-n6cccn6)nc54)ccc32)c1` [Compound 239] are 1090 nM and 117 nM.
`Cc1ncsc1C(=O)N[C@H]1CCc2cc(-n3c(-c4cccnc4N)nc4ccc(-n5cccn5)nc43)ccc21` [Compound 99]: the IC50 worked out at 260 nM in assay [1] (setting [3]) and 28.4 nM in assay [2] (setting [3]).
The corresponding values for `Nc1ncccc1-c1nc2ccc(-n3cccn3)nc2n1-c1ccc2c(c1)CC[C@@H]2NC(=O)c1ccc(Cl)cc1` [Compound 263] are 120 nM and 9.18 nM.
As for `Cc1ncccc1CN[C@H]1CCc2cc(-n3c(-c4cccnc4N)nc4ccc(-n5cccn5)nc43)ccc21` [Compound 140], the IC50 in assay [1] (setting [3]) came to 576 nM; in assay [2] (setting [3]), 31.5 nM.
Regarding `Nc1ncccc1-c1nc2ccc(-n3cccn3)nc2n1-c1ccc2c(c1)CC[C@@H]2N1CCCC1` [Compound 330], the IC50 stood at 1190 nM in assay [1] (setting [3]) and 55.1 nM in assay [2] (setting [3]).
The corresponding values for `COc1cc(C(=O)N[C@H]2CCc3cc(-n4c(-c5cccnc5N)nc5ccc(-n6cccn6)nc54)ccc32)cnn1` [Compound 377] are 22.2 nM and 2.9 nM.
As for `Nc1ncccc1-c1nc2ccc(-n3nccn3)nc2n1-c1ccc2c(c1)CC(F)[C@@H]2NC1CCN(C(=O)C2CC2)CC1` (stereo partly drawn) [Compound 532], the IC50 was greater than 10000 nM in assay [1] (setting [4]) and 177 nM in assay [2] (setting [4]).
Take `Cc1cc(C(=O)N[C@H]2CCc3cc(-n4c(-c5cccnc5N)nc5ccc(-n6cccn6)nc54)ccc32)cnc1C` [Compound 115]: the half-maximal inhibitory concentration (IC50) in assay [1] (setting [3]) is 31.7 nM; in assay [2] (setting [3]), 5.16 nM.
For the molecule `Cc1oncc1C(=O)N1CCC(N[C@H]2CCc3cc(-n4c(-c5cccnc5N)nc5ccc(-n6cccn6)nc54)ccc32)CC1` [Compound 489], the IC50 in assay [1] (setting [4]) was found to be 5410 nM; in assay [2] (setting [4]), 92.6 nM.
`Nc1ncccc1-c1nc2ccc(C#CC3CC3)nc2n1-c1ccc2c(c1)CC[C@@H]2NC(=O)c1ccc(F)c(F)c1` [Compound 459]: the IC50 in assay [1] (setting [4]) was found to be 782 nM; in assay [2] (setting [4]) it was 26.6 nM.
The corresponding values for `Cc1nc(C2CC2)ccc1C(=O)N[C@H]1CCc2cc(-n3c(-c4cccnc4N)nc4ccc(-n5nccn5)nc43)ccc21` [Compound 539] are 430 nM and 5.11 nM.
The corresponding values for `Nc1ncccc1-c1nc2ccc(-n3ccc(C4CC4)n3)nc2n1-c1ccc2c(c1)CC[C@@H]2NC1CCN(C(=O)C2CC2)CC1` [Compound 442] are 1600 nM and 72.6 nM.
In the case of `Nc1ncccc1-c1nc2ccc(-n3cccn3)nc2n1-c1ccc2c(c1)CC[C@@H]2n1cc(C(F)F)nn1` [Compound 326], the IC50 in assay [1] (setting [3]) turned out to be 1320 nM; in assay [2] (setting [3]) it was 18.2 nM.
The corresponding values for `Cc1ccc(C(C)N[C@H]2CCc3cc(-n4c(-c5cccnc5N)nc5ccc(-n6cccn6)nc54)ccc32)cn1` (stereo partly drawn) [Compound 153] are 2220 nM and 120 nM.
The corresponding values for `Cc1ncccc1-c1cn([C@H]2CCc3cc(-n4c(-c5cccnc5N)nc5ccc(-n6cccn6)nc54)ccc32)nn1` [Compound 254] are 753 nM and 23.9 nM.
`COc1nccc2c1CCC2N[C@H]1CCc2cc(-n3c(-c4cccnc4N)nc4ccc(-n5cccn5)nc43)ccc21` (stereo partly drawn) [Compound 509]: the IC50 turned out to be 928 nM in assay [1] (setting [4]) and 28.7 nM in assay [2] (setting [4]).
Turning to `Cc1nnc(C)n1[C@H]1CCc2cc(-n3c(-c4cccnc4N)nc4ccc(-n5cccn5)nc43)ccc21` [Compound 272, (S)-3-(3-(1-(3,5-dimethyl-4H-1,2,4-triazol-4-yl)-2,3-dihydro-1H-inden-5-yl)-5-(1H-pyrazol-1-yl)-3H-imidazo[4,5-b]pyridin-2-yl)pyridin-2-amine], the IC50 in assay [1] (setting [3]) was 604 nM; in assay [2] (setting [3]) it was 38.6 nM.
On to `Nc1ncccc1-c1nc2ccc(-n3cccn3)nc2n1-c1ccc2c(c1)CC[C@@H]2NC(=O)c1ccnc(OC2COC2)c1` [Compound 164, (S)—N-(5-(2-(2-aminopyridin-3-yl)-5-(1H-pyrazol-1-yl)-3H-imidazo[4,5-b]pyridin-3-yl)-2,3-dihydro-1H-inden-1-yl)-2-(oxetan-3-yloxy)isonicotinamide], for which the IC50 is 180 nM in assay [1] (setting [3]) and 15.3 nM in assay [2] (setting [3]).
`CN1CCN(c2ccn(-c3ccc4nc(-c5cccnc5N)n(-c5ccc6c(c5)CC[C@@H]6NC5CCN(C(=O)C6CC6)CC5)c4n3)n2)CC1` [Compound 563]: the IC50 in assay [1] (setting [4]) came to 37.8 nM; in assay [2] (setting [4]), 1.83 nM.
On to `Nc1ncccc1-c1nc2ccc(-n3cccn3)nc2n1-c1ccc2c(c1)CC[C@@H]2NC(=O)c1cc(F)c2[nH]ncc2c1` [Compound 261], for which the IC50 in assay [1] (setting [3]) came out at 46.7 nM; in assay [2] (setting [3]), 4.75 nM.
`Nc1ncccc1-c1nc2ccc(-n3ccc(C4CC4)n3)nc2n1-c1ccc2c(c1)CC(F)[C@@H]2NC1CCN(C(=O)C2CC2)CC1` (stereo partly drawn) [Compound 480]: the IC50 in assay [1] (setting [4]) is 3140 nM; in assay [2] (setting [4]) it was 38.9 nM.
On to `Cc1ccc(C(=O)N[C@H]2CCc3cc(-n4c(-c5cccnc5N)nc5c(C#N)cc(-n6nccn6)nc54)ccc32)cn1` [Compound 547], for which the IC50 in assay [1] (setting [4]) amounted to 1740 nM; in assay [2] (setting [4]) it was 28.3 nM.
The corresponding values for `COc1ccn(-c2ccc3nc(-c4cccnc4N)n(-c4ccc5c(c4)CC[C@@H]5NC4[C@@H]5COC[C@H]4CN(C(=O)C4CC4)C5)c3n2)n1` (single isomer, unassigned) [Compound 523] are 1740 nM and 48.4 nM.
With `Cc1nnn([C@H]2CCc3cc(-n4c(-c5cccnc5N)nc5ccc(-n6cccn6)nc54)ccc32)c1C` [Compound 249, (S)-3-(3-(1-(4,5-dimethyl-1H-1,2,3-triazol-1-yl)-2,3-dihydro-1H-inden-5-yl)-5-(1H-pyrazol-1-yl)-3H-imidazo[4,5-b]pyridin-2-yl)pyridin-2-amine], the IC50 is 368 nM in assay [1] (setting [3]) and 21.8 nM in assay [2] (setting [3]).
For the molecule `Nc1ncccc1-c1nc2ccc(-n3cccn3)nc2n1-c1ccc2c(c1)CC[C@@H]2NC1CCC1` [Compound 88, (S)-3-(3-(1-(cyclobutylamino)-2,3-dihydro-1H-inden-5-yl)-5-(1H-pyrazol-1-yl)-3H-imidazo[4,5-b]pyridin-2-yl)pyridin-2-amine], the figures for the IC50 in assay [1] (setting [3]) and in assay [2] (setting [3]) were 1810 nM and 155 nM, respectively.
`Nc1ncccc1-c1nc2ccc(-n3cccn3)nc2n1-c1ccc2c(c1)CC[C@H]2NC1CCN(C(=O)C2CC2)CC1` [Compound 500]: the IC50 is greater than 10000 nM in assay [1] (setting [4]) and 81.5 nM in assay [2] (setting [4]).
The corresponding values for `Nc1ncccc1-c1nc2ccc(C#CC3CC3)nc2n1-c1ccc2c(c1)CC[C@@H]2NC1CN(C(=O)C2CC2)C1` [Compound 506] are 8940 nM and 96.9 nM.
`Cc1cn([C@H]2CCc3cc(-n4c(-c5cccnc5N)nc5ccc(-n6cccn6)nc54)ccc32)nn1` [Compound 304]: the IC50 in assay [1] (setting [3]) is 4750 nM; in assay [2] (setting [3]), 80.8 nM.
The corresponding values for `Cn1nccc1Cc1nncn1[C@H]1CCc2cc(-n3c(-c4cccnc4N)nc4ccc(-n5cccn5)nc43)ccc21` [Compound 222] are 1400 nM and 146 nM.
The corresponding values for `Nc1ncccc1-c1nc2ccc(-n3cccn3)nc2n1-c1ccc2c(c1)CC[C@@H]2NC(=O)c1ccnc2c1CCC2` [Compound 235] are 111 nM and 22.8 nM.
The corresponding values for `Cc1ccc(C(=O)N[C@H]2CCc3cc(-n4c(-c5cccnc5N)nc5ccc(-n6cncn6)nc54)ccc32)cn1` [Compound 346] are 987 nM and 24.7 nM.

(Values after US12624034B2, “Non-covalent modifiers of AKT1 and uses thereof” (Terremoto Biosciences, Inc., priority 2023, dated 2026).)
